Measurements as given in PubChem BioAssay (NCI).
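Cells were grown in 96-well plates and exposed to each compound for 48 hours at five concentrations; endpoints were interpolated linearly between bracketing concentrations, or set to the highest concentration if not reached. At the TGI there is no net growth.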

Key:
Assay in all cases: growth of human tumour cells (NCI), 48 h
[1] = tested on: MOLT-4 leukemia
[2] = tested on: NCI-H460 lung
[3] = tested on: COLO 205 colon
[4] = tested on: SK-MEL-5 melanoma
[5] = tested on: MDA-MB-231 breast
[6] = tested on: 786-0 renal
[7] = tested on: SN12C renal
[8] = tested on: ACHN renal
[9] = tested on: OVCAR-3 ovarian
[10] = tested on: TK-10 renal
[11] = tested on: MDA-N
[12] = tested on: RXF 393 renal
[13] = tested on: T-47D breast
[14] = tested on: EKVX NSCLC
[15] = tested on: SR leukemia
[16] = tested on: HOP-92 NSCLC
[17] = tested on: SF-295 CNS
[18] = tested on: DU-145 prostate
[19] = tested on: K-562 leukemia
[20] = tested on: SK-MEL-2 melanoma

## Cc1cc(NS(=O)(=O)c2ccc(NC(=O)c3ccc4[nH]c5ccccc5c(=O)c4c3)cc2)no1
[1]
  TGI: > 100 µM
[2]
  TGI: > 100 µM
[3]
  TGI: > 100 µM
[4]
  TGI: > 100 µM
[5]
  TGI: > 100 µM
[6]
  TGI: > 100 µM
[7]
  TGI: > 100 µM
[8]
  TGI: > 100 µM
[9]
  TGI: > 100 µM
[10]
  TGI: > 100 µM
[11]
  TGI: > 100 µM
[12]
  TGI: 90.7 µM
[13]
  TGI: > 100 µM
[14]
  TGI: > 100 µM
[15]
  TGI: > 100 µM
[16]
  TGI: > 100 µM
[17]
  TGI: > 100 µM
[18]
  TGI: > 100 µM
[19]
  TGI: > 100 µM
[20]
  TGI: > 100 µM

## S=c1nc(Cc2ccc(Cl)cc2)[nH][nH]1
[1]
  TGI: > 100 µM
[2]
  TGI: > 100 µM
[3]
  TGI: > 100 µM
[4]
  TGI: > 100 µM
[5]
  TGI: > 100 µM
[6]
  TGI: > 100 µM
[7]
  TGI: > 100 µM
[8]
  TGI: > 100 µM
[9]
  TGI: > 100 µM
[10]
  TGI: > 100 µM
[11]
  TGI: > 100 µM
[13]
  TGI: 99.6 µM
[14]
  TGI: > 100 µM
[15]
  TGI: > 100 µM
[16]
  TGI: 85.7 µM
[17]
  TGI: > 100 µM
[18]
  TGI: > 100 µM
[19]
  TGI: > 100 µM
[20]
  TGI: > 100 µM

## Cc1n[nH]c(=O)n1C1CCCC1
[1]
  TGI: > 100 µM
[2]
  TGI: > 100 µM
[3]
  TGI: > 100 µM
[4]
  TGI: > 100 µM
[5]
  TGI: > 100 µM
[6]
  TGI: > 100 µM
[7]
  TGI: > 100 µM
[8]
  TGI: > 100 µM
[9]
  TGI: > 100 µM
[10]
  TGI: > 100 µM
[11]
  TGI: > 100 µM
[12]
  TGI: > 100 µM
[13]
  TGI: > 100 µM
[14]
  TGI: > 100 µM
[15]
  TGI: > 100 µM
[16]
  TGI: > 100 µM
[17]
  TGI: > 100 µM
[18]
  TGI: > 100 µM
[19]
  TGI: > 100 µM

## C=C1[C@H](OC(=O)C(C)C)[C@]23CC4(O)[C@@H]5[C@@]6(C)CCC[C@]57C([C@@H]2C[C@@]1(O)[C@H](O)[C@@H]73)N4C6
[1]
  TGI: > 100 µM
[2]
  TGI: > 100 µM
[3]
  TGI: > 100 µM
[4]
  TGI: > 100 µM
[5]
  TGI: > 100 µM
[6]
  TGI: > 100 µM
[8]
  TGI: > 100 µM
[9]
  TGI: > 100 µM
[10]
  TGI: > 100 µM
[11]
  TGI: > 100 µM
[12]
  TGI: > 100 µM
[13]
  TGI: > 100 µM
[14]
  TGI: > 100 µM
[15]
  TGI: > 100 µM
[16]
  TGI: > 100 µM
[17]
  TGI: > 100 µM
[18]
  TGI: > 100 µM
[20]
  TGI: > 100 µM

## CCN(CC)c1ccc(/C=C2/C[N+](C)(C)C/C(=C/c3ccc(N(CC)CC)cc3)C2=O)cc1
[1]
  TGI: 4.83 µM
[2]
  TGI: 15 µM
[3]
  TGI: 2.69 µM
[4]
  TGI: 3.62 µM
[5]
  TGI: 5.87 µM
[6]
  TGI: 13.6 µM
[7]
  TGI: 16.4 µM
[8]
  TGI: > 100 µM
[9]
  TGI: 7.31 µM
[10]
  TGI: 61.8 µM
[11]
  TGI: 3.56 µM
[12]
  TGI: 10.3 µM
[13]
  TGI: 11.3 µM
[14]
  TGI: 75.7 µM
[15]
  TGI: 3.52 µM
[16]
  TGI: 4.8 µM
[17]
  TGI: > 90.6 µM
[18]
  TGI: > 50.6 µM
[19]
  TGI: 7.91 µM
[20]
  TGI: 3.92 µM

## O=C(c1ccco1)N(Cc1ccco1)C(=S)Nc1ccccc1
[1]
  TGI: 27.6 µM
[2]
  TGI: 99.8 µM
[3]
  TGI: 26.8 µM
[4]
  TGI: 35.9 µM
[5]
  TGI: 41.1 µM
[6]
  TGI: 22.7 µM
[7]
  TGI: 45.4 µM
[8]
  TGI: 40.8 µM
[9]
  TGI: 59.7 µM
[10]
  TGI: > 77.4 µM
[11]
  TGI: 38.1 µM
[12]
  TGI: 31.9 µM
[13]
  TGI: 54.1 µM
[14]
  TGI: > 96.5 µM
[15]
  TGI: 13.2 µM
[16]
  TGI: 30.3 µM
[17]
  TGI: > 84.1 µM
[18]
  TGI: > 100 µM
[19]
  TGI: 40.8 µM
[20]
  TGI: 42.9 µM

## COc1cc(-c2cc(=O)c3c(OC)c(OC)c(OC)cc3o2)c(OC)c(OC)c1OC
[1]
  TGI: > 75 µM
[2]
  TGI: > 75 µM
[3]
  TGI: > 75 µM
[4]
  TGI: > 75 µM
[5]
  TGI: > 75 µM
[6]
  TGI: > 75 µM
[7]
  TGI: > 75 µM
[8]
  TGI: > 75 µM
[9]
  TGI: > 75 µM
[10]
  TGI: > 75 µM
[11]
  TGI: > 75 µM
[12]
  TGI: > 75 µM
[13]
  TGI: > 75 µM
[14]
  TGI: > 75 µM
[15]
  TGI: > 75 µM
[16]
  TGI: > 75 µM
[17]
  TGI: > 75 µM
[18]
  TGI: > 75 µM
[19]
  TGI: > 75 µM
[20]
  TGI: > 75 µM

## CN(C)c1ccc(/C=C(\NC(=O)c2ccccc2)C(=O)NCC(=O)O)cc1
[1]
  TGI: > 100 µM
[2]
  TGI: > 100 µM
[3]
  TGI: > 100 µM
[4]
  TGI: > 100 µM
[5]
  TGI: > 100 µM
[6]
  TGI: > 100 µM
[7]
  TGI: > 100 µM
[8]
  TGI: > 100 µM
[9]
  TGI: > 100 µM
[11]
  TGI: > 100 µM
[12]
  TGI: > 100 µM
[13]
  TGI: > 100 µM
[14]
  TGI: > 100 µM
[15]
  TGI: > 100 µM
[16]
  TGI: > 100 µM
[17]
  TGI: > 100 µM
[18]
  TGI: > 100 µM
[19]
  TGI: > 100 µM
[20]
  TGI: > 100 µM

## CCOC(=O)C1C(c2ccc(OC)cc2)c2c([nH]n(-c3ccccc3)c2=O)CC1(O)OCC (stereo not drawn)
[1]
  TGI: 14 µM
[2]
  TGI: > 100 µM
[3]
  TGI: > 100 µM
[4]
  TGI: > 100 µM
[5]
  TGI: > 100 µM
[6]
  TGI: > 100 µM
[7]
  TGI: > 100 µM
[8]
  TGI: > 100 µM
[9]
  TGI: > 100 µM
[10]
  TGI: > 100 µM
[11]
  TGI: > 100 µM
[13]
  TGI: > 100 µM
[14]
  TGI: > 100 µM
[15]
  TGI: > 100 µM
[16]
  TGI: > 100 µM
[17]
  TGI: > 100 µM
[18]
  TGI: > 100 µM
[20]
  TGI: > 100 µM

## COc1cc2c(c(O)c1OC)C(O)C1CCC(=O)N1C2c1cccc2ccccc12 (stereo not drawn)
[1]
  TGI: > 100 µM
[2]
  TGI: > 100 µM
[3]
  TGI: > 100 µM
[4]
  TGI: > 100 µM
[5]
  TGI: > 100 µM
[6]
  TGI: > 100 µM
[7]
  TGI: > 100 µM
[8]
  TGI: > 100 µM
[9]
  TGI: > 100 µM
[11]
  TGI: > 100 µM
[12]
  TGI: > 100 µM
[13]
  TGI: > 100 µM
[14]
  TGI: > 100 µM
[15]
  TGI: > 100 µM
[16]
  TGI: > 100 µM
[17]
  TGI: > 100 µM
[18]
  TGI: > 100 µM
[19]
  TGI: > 100 µM
[20]
  TGI: > 100 µM

## O=S(=O)(O)CCCC1S(=O)(=O)OCCOS1(=O)=O
[2]
  TGI: > 100 µM
[3]
  TGI: > 100 µM
[4]
  TGI: > 100 µM
[5]
  TGI: > 100 µM
[6]
  TGI: > 100 µM
[8]
  TGI: > 100 µM
[9]
  TGI: > 100 µM
[10]
  TGI: > 100 µM
[11]
  TGI: > 100 µM
[12]
  TGI: > 100 µM
[13]
  TGI: > 100 µM
[14]
  TGI: > 100 µM
[15]
  TGI: > 100 µM
[16]
  TGI: > 100 µM
[17]
  TGI: > 100 µM
[18]
  TGI: > 100 µM
